The values that follow come from patent US12649751B2 (Arcus Biosciences, Inc., priority 2022, dated 2026).

A value given as a limit tells only on which side of the number the result lay.

In one assay the target is HPK1 (Homo sapiens, UniProt Q92918). The experiment in a line: HPK1 Biochemical Assay (ADP-Glo luminescence; low ATP 10 μM or high ATP 200 μM). As to conditions: HPK1 ADP-Glo assay, high ATP (200 μM ATP, 5 nM HPK1); read-out: Biochemical Potency (high ATP). On the technique in general: ADP-Glo first removes unused ATP, then detects ADP through luciferase.
Assay [1] relates to p-SLP-76 (Ser376) in Jurkat cells. Nature of the assay: pSLP76 Cellular Assay (AlphaLISA SureFire Ultra p-SLP-76 (Ser376), anti-CD3 activated Jurkat cells). It counts as cell-based. As to conditions: Homo sapiens; pSLP76 (Ser376) AlphaLISA, anti-CD3 activated Jurkat cells; read-out: Cellular Potency. The method in brief: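 Jurkat cells, serum-starved overnight in Opti-MEM then in HBSS, preincubated 1 h at 37 °C with 22-point 2-fold compound dilutions, then stimulated with anti-CD3 (0.025 mg/ml added solution) for 45 min. Lysate p-SLP-76 (Ser376) measured by AlphaLISA at 570 nm; IC50 from 4-parameter logistic fit.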
For orientation: Bead proximity is the source of the signal in Alpha formats.

Chain of HPK1 (Q92918 whole entry, species assumed): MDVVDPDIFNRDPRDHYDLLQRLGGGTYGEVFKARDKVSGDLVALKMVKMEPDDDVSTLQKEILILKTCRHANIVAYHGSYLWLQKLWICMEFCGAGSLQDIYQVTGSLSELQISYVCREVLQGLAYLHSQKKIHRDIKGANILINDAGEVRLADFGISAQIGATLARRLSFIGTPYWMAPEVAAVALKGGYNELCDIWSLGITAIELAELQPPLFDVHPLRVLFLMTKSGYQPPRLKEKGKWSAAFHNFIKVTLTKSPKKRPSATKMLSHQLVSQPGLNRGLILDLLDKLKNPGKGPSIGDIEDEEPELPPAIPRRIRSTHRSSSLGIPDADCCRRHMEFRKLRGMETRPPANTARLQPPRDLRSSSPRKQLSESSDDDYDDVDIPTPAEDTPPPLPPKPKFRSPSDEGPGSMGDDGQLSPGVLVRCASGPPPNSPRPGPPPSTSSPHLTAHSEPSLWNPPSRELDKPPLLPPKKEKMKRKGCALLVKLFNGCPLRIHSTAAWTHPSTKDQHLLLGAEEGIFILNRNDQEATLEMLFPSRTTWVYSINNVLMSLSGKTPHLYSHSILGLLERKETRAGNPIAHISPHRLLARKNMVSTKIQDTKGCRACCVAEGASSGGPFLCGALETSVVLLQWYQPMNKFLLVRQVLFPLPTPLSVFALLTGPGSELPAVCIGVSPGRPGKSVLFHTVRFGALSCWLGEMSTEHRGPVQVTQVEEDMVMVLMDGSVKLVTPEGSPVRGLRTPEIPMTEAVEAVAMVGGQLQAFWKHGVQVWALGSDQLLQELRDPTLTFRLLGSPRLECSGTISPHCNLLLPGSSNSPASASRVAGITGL

Take `Cc1cc(Nc2cc3nc(-c4cnn(CC5CC5(F)F)c4)sc3cn2)nc(N2C[C@@H]3C[C@H]2CN3C)n1` (stereo partly shown) [Example 380]: the IC50 was < 100 nM on HPK1 and 1000 to 5000 nM in assay [1].

As for `CC(=O)N1CCC(n2cc(-c3nc4cc(Nc5cc(C)nc(N6C[C@@H]7C[C@H]6CN7C)n5)ncc4s3)cn2)CC1` [Example 571], the IC50 on HPK1 is 100 to 1000 nM; in assay [1], 1000 to 5000 nM.
